Reference: patent US11993640B2, “Treating inflammatory lung disease” (United States Government as represented by the Department …, priority 2019, dated 2024)
Non-standard residues stand in square brackets, D forms with d. Residues, ends and D or L forms follow the SMILES beside them. *: point of attachment. Phe(F5) = N[C@@H](Cc1c(F)c(F)c(F)c(F)c1F)C(=O)O; hArg = N=C(N)NCCCC[C@H](N)C(=O)O; 12Ado = NCCCCCCCCCCCC(=O)O; Nle = CCCC[C@H](N)C(=O)O; Orn = NCCC[C@H](N)C(=O)O; Abu = CC[C@H](N)C(=O)O; PhAc = O=C(Cc1ccccc1)*

Key:
HCC827 xenograft = experiment: Xenograft tumor growth in nude mice, lung cancer HCC827; type: in vivo; conditions: Panel C, 8 weeks, 5 μg/day s.c.
Procedure: The peptides' activity was compared with GHRH antagonist MIA-602. All statistical analyzses were performed from comparing GHRA antagonists to non-treated tumor (control).
Peptides and chemicals. GHRH antagonists MIA-602 and AVR-GHRH antagonists (see Table 2 above) were synthesized by solid phase methods and purified by HPLC. The peptides were dissolved in DMSO and further diluted in 10% 1, 2-propanediol. The final concentration of peptides was 50 µg/ml in 10% 1, 2-propanediol containing 0.1% of DMSO.
Cell culture. Human cancer cell lines including pancreatic (PANC-1 and CFPAC-1), lung (HCC827 and H460), stomach (NCI-N87), prostate (PC3), brest (MX-1 and HCC-1806), colorectal (HT-29), and ovarian (SK-OV-3 and OVCAR-3) were obtained from the American Type Culture Collection (ATCC) and cultured at 37° C. in a humidified 95% air/5% CO2 atmosphere in the medium recommended by ATCC.
Xenograft models of human cancers in nude mice. Female athymic (NCr nu/nu) nude mice, 5-to 6-weeks-old, obtained from the Envigo labs (Tampa, FL), were housed in laminar airflow cabinets under pathogen-free conditions with a 12-h light/12-h dark schedule, and were fed autoclaved standard chow and water. To generate mice with xenografted tumors, tumor xenografts were initiated by subcutaneous (s.c.) injection of […] human cancer cells into female nude mice. After about 4 weeks the resulting tumors were dissected and collected after removing necrosis tissues. The tumors were then cut into particles with size of ˜3 mm3 and transplanted s.c. by trocar needle into experimental animals. When tumors grew to the size of 50-60 mm3 (by volume), mice were randomized into groups and treated daily for 4-8 weeks by subcutaneous administration of 5 μg of GHRH antagonists MIA-602 or AVR-compounds (2-10 μg as indicated), or vehicle solutions (0.1% DMSO in 10% 1, 2-propanediol) respectively. Tumor sizes were measured weekly.
Statistical analysis. One-way ANOVA followed by Bonferroni comparison were performed. Data are expressed as Mean±SEM. To determine statistical significance between animal groups, two-tailed Student's t-test was conducted. Differences were considered significant when p<0.05.
Results. […] FIG. 1A-N represents in vivo inhibition of tumor growth during the treatment with GHRH antagonist MIA-602 and selected AVR antagonists in nude mice xenografted with various human tumors including pancreatic cancer PANC-1 (FIG. 1A) and CFPAC-1 (FIG. 1I); lung cancer HCC827 (FIGS. 1B, C) and H460 (FIG. 1H); stomach cancer N87 (FIGS. 1D-F); colon cancer HT-29 (FIG. 1G); breast cancer MX-1 and HCC-1806 (FIGS. 1J, K); ovarian cancer SK-OV-3 and OVACAR-3 (FIGS. 1L, M) and prostate cancer PC3 (FIG. 1N). See also Table 5.

SK-OV-3 cells = experiment: In vitro cell viability, ovarian cancer SK-OV-3; type: cell-based, human; conditions: * at concentration of 2 μM for 72 h; Table 3B
Procedure: The inhibitory effects of the various synthesized GHRH antagonists were tested in cell proliferation assays in various human cancer cell lines including stomach cancer (KATOIII, N87), colon cancer (HT-29), urothelial cancer (J82, RT4), pancreatic cancer (PANC-1, CFPAC-1), prostatic cancer (PC3), breast cancer (MX-1, HCC1806), ovarian cancer (SK-OV-3, OVCAR-3) and lung cancer (HCC827, H460).
Cell culture. Human cancer cell lines including pancreatic (PANC-1 and CFPAC-1), lung (HCC827 and H460), stomach (NCI-N87 and KATOIII), urothelial (J82, RT4), prostatic (PC3), breast (MX-1 and HCC 1806), colorectal (HT-29), and ovarian (SK-OV-3 and OVCAR-3) were obtained from the American Type Culture Collection (ATCC) and cultured at 37° C. in a humidified 95% air/5% CO2 atmosphere in the medium recommended by ATCC.
In vitro cell viability. Cell viability was analyzed as follows: cancer cells including pancreatic (PANC-1 and CFPAC-1), lung (HCC827 and H460), stomach (NCI-N87 and KATOIII), urothelial (J82, RT4), prostatic (PC3) and breast (MX-1 and HCC 1806), colorectal (HT-29) and ovarian (SK-OV-3 and OVCAR-3) were grown on 96 well plates to ˜60% confluence, the cells were starved for 24 h in culture medium containing 0.5% FBS. […] Cell viability was measured using CellTiter 96 aqueous one solution kit (Promega). […]

CCCC[C@H](NC(=O)[C@@H](NC(=O)[C@H](CC(=O)O)NC(=O)[C@H](CCC(N)=O)NC(=O)[C@H](CC(C)C)NC(=O)[C@H](CC(C)C)NC(=O)[C@H](CCCN)NC(=O)[C@H](Cc1c[nH]cn1)NC(=O)[C@H](C)NC(=O)[C@H](CO)NC(=O)[C@H](CC(C)C)NC(=O)[C@H](CCC(N)=O)NC(=O)[C@H](CC)NC(=O)[C@H](CC(C)C)NC(=O)[C@@H](NC(=O)[C@H](CCCN)NC(=O)[C@H](Cc1c[nH]cn1)NC(=O)[C@H](Cc1ccc(OC)cc1)NC(=O)[C@H](CCCCNC(=N)N)NC(=O)[C@H](C)NC(=O)[C@@H](NC(=O)[C@H](Cc1c(F)c(F)c(F)c(F)c1F)NC(=O)[C@@H](NC(=O)[C@H](C)NC(=O)[C@H](CC(=O)O)NC(=O)[C@@H](CCCNC(=N)N)NC(=O)[C@H](Cc1ccc(O)cc1)NC(=O)CCCCCCCCCCCNC(=O)Cc1ccccc1)[C@@H](C)CC)[C@@H](C)O)C(C)C)[C@@H](C)CC)C(=O)N[C@H](CCCNC(=N)N)C(=O)N[C@@H](CCCCNC(=N)N)C(N)=O [MIA-602, PhAC-Ada, Tyr D-Arg, Asp, Ala, Ile, 5FPhe, Thr, Ala, Har, Tyr(Me), His, Orn, Val, Leu, Abu, Gin, Leu, Ser, Ala, His, Orn, Leu, Leu, Gin, Asp, Ile, Nle, D-Arg, Har NH2, reference compound] ({PhAc-12Ado}-Y[dR]DAI[Phe(F5)]TA[hArg]Y(Me)H[Orn]VL[Abu]QLSAH[Orn]LLQDI[Nle][dR][hArg]-NH2)
Tumor Growth % (HCC827 xenograft): 523.03%
% Inhibition (HCC827 xenograft; vs control): 37.8%
In vitro relative inhibitory potency in comparison to MIA-602, SKOV-3 (SK-OV-3 cells): 1
